Assay results published in PubChem BioAssay AID2060883 (Molecular Pharmacology Branch, DTP, NCI, 2025).
Several values for one entry are separate records, joined by “and”; a condition that tells them apart may be missing. Identical values can stand only once.

Tested on: 843782-103-R-J1-PDC complex spheroid viability
Assay: Anticancer human tumor 843782-103-R-J1-PDC patient-derived lung adenocarcinoma cell line growth inhibition [RAS]
Conditions: for viability, T/C: stronger effect = lower value
Outline: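 Multi-cell-type spheroids: tumor cells plus HUVEC endothelial cells and mesenchymal stem cells. RAS-pathway inhibitors were combined with targeted agents, each dosed in half-log steps down from clinical Cmax, or from 10 microM when Cmax was unknown.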

[1] = curve of first compound, second compound 0.000949 µM
[2] = curve of first compound, second compound 0.003 µM
[3] = curve of first compound, second compound 0.00949 µM
[4] = curve of first compound, second compound 0.03 µM
[5] = curve of first compound, second compound 0.0949 µM
[6] = curve of first compound, second compound 0.3 µM
[7] = second compound 0.000949 µM, first compound 0.0316 µM
[8] = second compound 0.000949 µM, first compound 0.1 µM
[9] = second compound 0.000949 µM, first compound 0.316 µM
[10] = second compound 0.000949 µM, first compound 1 µM
[11] = second compound 0.003 µM, first compound 0.0316 µM
[12] = second compound 0.003 µM, first compound 0.1 µM
[13] = second compound 0.003 µM, first compound 0.316 µM
[14] = second compound 0.003 µM, first compound 1 µM
[15] = second compound 0.00949 µM, first compound 0.0316 µM
[16] = second compound 0.00949 µM, first compound 0.1 µM
[17] = second compound 0.00949 µM, first compound 0.316 µM
[18] = second compound 0.00949 µM, first compound 1 µM
[19] = second compound 0.03 µM, first compound 0.0316 µM
[20] = second compound 0.03 µM, first compound 0.1 µM
[21] = second compound 0.03 µM, first compound 0.316 µM
[22] = second compound 0.03 µM, first compound 1 µM
[23] = second compound 0.0949 µM, first compound 0.0316 µM
[24] = second compound 0.0949 µM, first compound 0.1 µM
[25] = second compound 0.0949 µM, first compound 0.316 µM
[26] = second compound 0.0949 µM, first compound 1 µM
[27] = second compound 0.3 µM, first compound 0.0316 µM
[28] = second compound 0.3 µM, first compound 0.1 µM
[29] = second compound 0.3 µM, first compound 0.316 µM
[30] = second compound 0.3 µM, first compound 1 µM
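Note: viability read after seven days of compound exposure.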

For `CCN1CCN(Cc2ccc(Nc3ncc(F)c(-c4cc(F)c5nc(C)n(C(C)C)c5c4)n3)nc2)CC1` + CCn1c(-c2cc(N3CCN(C)CC3)cnc2C(C)OC)c2c3cc(ccc31)-c1csc(n1)CC(NC(=O)C1CC1C)C(=O)N1CCCC(N1)C(=O)OCC(C)(C)C2, the IC50 [1] was 531 nM, the IC50 [2] was 122 nM and the IC50 [3] was less than 3.16 nM. The IC50 [4] was less than 3.16 nM, the IC50 [5] was less than 3.16 nM and the IC50 [6] was less than 3.16 nM. For the same compound, the viability, T/C (second compound 0.000949 µM, first compound 0.00316 µM) was 79.5%, the viability, T/C (second compound 0.000949 µM, first compound 0.01 µM) was 83.1% and the viability, T/C [7] was 78.2%. It also gave a viability, T/C [8] of 73%, a viability, T/C [9] of 63.4% and a viability, T/C [10] of 34.5%. For the same compound, the viability, T/C (second compound 0.003 µM, first compound 0.00316 µM) was 64%, the viability, T/C (second compound 0.003 µM, first compound 0.01 µM) was 66.3% and the viability, T/C [11] was 57.1%. The viability, T/C [12] was 52.2%, the viability, T/C [13] was 41.8% and the viability, T/C [14] was 29.9%. The viability, T/C (second compound 0.00949 µM, first compound 0.00316 µM) was 45.9%, the viability, T/C (second compound 0.00949 µM, first compound 0.01 µM) was 42.9% and the viability, T/C [15] was 34.4%. The viability, T/C [16] was 31.1%, the viability, T/C [17] was 30.1% and the viability, T/C [18] was 20.8%. For the same compound, the viability, T/C (second compound 0.03 µM, first compound 0.00316 µM) was 24.5%, the viability, T/C (second compound 0.03 µM, first compound 0.01 µM) was 22.6% and the viability, T/C [19] was 21%. The viability, T/C [20] was 20%, the viability, T/C [21] was 18.2% and the viability, T/C [22] was 17%. It also gave a viability, T/C (second compound 0.0949 µM, first compound 0.00316 µM) of 17.9%, a viability, T/C (second compound 0.0949 µM, first compound 0.01 µM) of 16.1% and a viability, T/C [23] of 15.8%. The viability, T/C [24] was 15.2%, the viability, T/C [25] was 16.1% and the viability, T/C [26] was 14.2%. It also gave a viability, T/C (second compound 0.3 µM, first compound 0.00316 µM) of 17.1%, a viability, T/C (second compound 0.3 µM, first compound 0.01 µM) of 12.4% and a viability, T/C [27] of 14%. It also gave a viability, T/C [28] of 12.3%, a viability, T/C [29] of 13.9% and a viability, T/C [30] of 12.3%.
`CC1(O)CCCC1n1c(=O)c(C(F)F)cc2cnc(NC3CCN(S(C)(=O)=O)CC3)nc21` (centres undefined) was tested, and the viability, T/C (compound 0.0316 µM) was 103% [middle of 4 runs], the viability, T/C (compound 0.316 µM) was 31.9% [middle of 4 runs] and the viability, T/C (compound 1 µM) was 37.1% [middle of 4 runs]. For the same compound, the viability, T/C (compound 3.16 µM) was 23.7% [middle of 4 runs], the viability, T/C (compound 10 µM) was 3.54% [middle of 4 runs] and the IC50 (curve of compound) was 307 nM [middle of 4 runs].
In the case of `CC(Nc1ccc2c(c1)OCCn1cc(N3C(=O)OCC3C(F)F)nc1-2)C(N)=O` (centres undefined) + CCn1c(-c2cc(N3CCN(C)CC3)cnc2C(C)OC)c2c3cc(ccc31)-c1csc(n1)CC(NC(=O)C1CC1C)C(=O)N1CCCC(N1)C(=O)OCC(C)(C)C2, the IC50 [1] is reported as 77 nM, the IC50 [2] is reported as less than 31.6 nM and the IC50 [3] is reported as less than 31.6 nM. It also gave an IC50 [4] of less than 31.6 nM, an IC50 [5] of less than 31.6 nM and an IC50 [6] of less than 31.6 nM. It also gave a viability, T/C [7] of 58%, a viability, T/C [8] of 48.6% and a viability, T/C [9] of 29.5%. For the same compound, the viability, T/C [10] was 17.9%, the viability, T/C (second compound 0.000949 µM, first compound 3.16 µM) was 15.6% and the viability, T/C (second compound 0.000949 µM, first compound 10 µM) was 8.54%. It also gave a viability, T/C [11] of 46.8%, a viability, T/C [12] of 31.7% and a viability, T/C [13] of 23.1%. The viability, T/C [14] was 14.1%, the viability, T/C (second compound 0.003 µM, first compound 3.16 µM) was 10.7% and the viability, T/C (second compound 0.003 µM, first compound 10 µM) was 5.42%. It also gave a viability, T/C [15] of 28%, a viability, T/C [16] of 17.1% and a viability, T/C [17] of 17%. For the same compound, the viability, T/C [18] was 10.7%, the viability, T/C (second compound 0.00949 µM, first compound 3.16 µM) was 9.87% and the viability, T/C (second compound 0.00949 µM, first compound 10 µM) was 3.83%. The viability, T/C [19] was 17.1%, the viability, T/C [20] was 13.6% and the viability, T/C [21] was 10.8%. The viability, T/C [22] was 8.39%, the viability, T/C (second compound 0.03 µM, first compound 3.16 µM) was 6.08% and the viability, T/C (second compound 0.03 µM, first compound 10 µM) was 2.39%. The viability, T/C [23] was 15.7%, the viability, T/C [24] was 10.8% and the viability, T/C [25] was 9.99%. It also gave a viability, T/C [26] of 6.85%, a viability, T/C (second compound 0.0949 µM, first compound 3.16 µM) of 4.41% and a viability, T/C (second compound 0.0949 µM, first compound 10 µM) of 3.16%. It also gave a viability, T/C [27] of 16.4%, a viability, T/C [28] of 10.4% and a viability, T/C [29] of 7.76%. For the same compound, the viability, T/C [30] was 7.43%, the viability, T/C (second compound 0.3 µM, first compound 3.16 µM) was 5.53% and the viability, T/C (second compound 0.3 µM, first compound 10 µM) was 2.56%.
`CC(C)NCC(C(=O)N1CCN(c2ncnc3c2C(C)CC3O)CC1)c1ccc(Cl)cc1` (centres undefined) was tested, and the viability, T/C (compound 0.0316 µM) was 106% (2×) and 97% and 95.9%, the viability, T/C (compound 0.1 µM) was 96.2% [middle of 4 runs] and the viability, T/C (compound 0.316 µM) was 92.3% [middle of 4 runs]. The viability, T/C (compound 1 µM) was 62.4% [middle of 4 runs], the viability, T/C (compound 3.16 µM) was 30% [middle of 4 runs] and the viability, T/C (compound 10 µM) was 13.7% [middle of 4 runs]. The IC50 (curve of compound) was 1.54 µM [middle of 4 runs].
With `CC(Nc1ccc2c(c1)OCCn1cc(N3C(=O)OCC3C(F)F)nc1-2)C(N)=O` (centres undefined) the viability, T/C (compound 0.0316 µM) was 95.9% [middle of 4 runs], the viability, T/C (compound 0.316 µM) was 50.3% [middle of 4 runs] and the viability, T/C (compound 1 µM) was 38.3% [middle of 4 runs]. For the same compound, the viability, T/C (compound 3.16 µM) was 26.1% [middle of 4 runs] and the viability, T/C (compound 10 µM) was 16.3% [middle of 4 runs].
`C=CC(=O)N1CCN(c2nc(OCC3CCCN3C)nc3c(F)c(-c4nc(N)cc(C)c4C(F)(F)F)c(Cl)cc23)C(C)C1` (centres undefined) + C#Cc1c(F)ccc2cc(O)cc(-c3ncc4c(N5CC6CCC(C5)N6)nc(OCC56CCCN5CC(F)C6)nc4c3F)c12 gave an IC50 (curve of first compound, second compound 0.0316 µM) greater than 1000 nM, an IC50 (curve of first compound, second compound 0.1 µM) greater than 1000 nM and an IC50 (curve of first compound, second compound 0.316 µM) greater than 1000 nM. For the same compound, the IC50 (curve of first compound, second compound 1 µM) was greater than 1000 nM, the IC50 (curve of first compound, second compound 3.16 µM) was greater than 1000 nM and the IC50 (curve of first compound, second compound 10 µM) was less than 3.16 nM. The viability, T/C (second compound 0.0316 µM, first compound 0.00316 µM) was 89.9%, the viability, T/C (second compound 0.0316 µM, first compound 0.01 µM) was 81.1% and the viability, T/C (second compound 0.0316 µM, first compound 0.0316 µM) was 83.3%. For the same compound, the viability, T/C (second compound 0.0316 µM, first compound 0.1 µM) was 76.3%, the viability, T/C (second compound 0.0316 µM, first compound 0.316 µM) was 88.4% and the viability, T/C (second compound 0.0316 µM, first compound 1 µM) was 79.5%. For the same compound, the viability, T/C (second compound 0.1 µM, first compound 0.00316 µM) was 89.7%, the viability, T/C (second compound 0.1 µM, first compound 0.01 µM) was 83.1% and the viability, T/C (second compound 0.1 µM, first compound 0.0316 µM) was 74.4%. It also gave a viability, T/C (second compound 0.1 µM, first compound 0.1 µM) of 78.1%, a viability, T/C (second compound 0.1 µM, first compound 0.316 µM) of 69.8% and a viability, T/C (second compound 0.1 µM, first compound 1 µM) of 80.6%. The viability, T/C (second compound 0.316 µM, first compound 0.00316 µM) was 86.5%, the viability, T/C (second compound 0.316 µM, first compound 0.01 µM) was 68.1% and the viability, T/C (second compound 0.316 µM, first compound 0.0316 µM) was 74.8%. For the same compound, the viability, T/C (second compound 0.316 µM, first compound 0.1 µM) was 78.8%, the viability, T/C (second compound 0.316 µM, first compound 0.316 µM) was 77.4% and the viability, T/C (second compound 0.316 µM, first compound 1 µM) was 76.1%. For the same compound, the viability, T/C (second compound 1 µM, first compound 0.00316 µM) was 81%, the viability, T/C (second compound 1 µM, first compound 0.01 µM) was 74.1% and the viability, T/C (second compound 1 µM, first compound 0.0316 µM) was 79.3%. The viability, T/C (second compound 1 µM, first compound 0.1 µM) was 69.3%, the viability, T/C (second compound 1 µM, first compound 0.316 µM) was 65.8% and the viability, T/C (second compound 1 µM, first compound 1 µM) was 68.5%. For the same compound, the viability, T/C (second compound 3.16 µM, first compound 0.00316 µM) was 62.2%, the viability, T/C (second compound 3.16 µM, first compound 0.01 µM) was 67.2% and the viability, T/C (second compound 3.16 µM, first compound 0.0316 µM) was 70%. It also gave a viability, T/C (second compound 3.16 µM, first compound 0.1 µM) of 64.3%, a viability, T/C (second compound 3.16 µM, first compound 0.316 µM) of 60.1% and a viability, T/C (second compound 3.16 µM, first compound 1 µM) of 64.5%. For the same compound, the viability, T/C (second compound 10 µM, first compound 0.00316 µM) was 39.6%, the viability, T/C (second compound 10 µM, first compound 0.01 µM) was 57% and the viability, T/C (second compound 10 µM, first compound 0.0316 µM) was 44.8%. It also gave a viability, T/C (second compound 10 µM, first compound 0.1 µM) of 49.7%, a viability, T/C (second compound 10 µM, first compound 0.316 µM) of 40.5% and a viability, T/C (second compound 10 µM, first compound 1 µM) of 40.5%.
